32 molecules from US10736898B2, “Positive allosteric modulators of the muscarinic acetylcholine receptor M4” (Vanderbilt University, priority 2017, dated 2020) can be followed below.

This test concerns the target T1, Human M4 (Homo sapiens, UniProt P08173).
T1 construct: expressed in transfected cells
T1 sequence (P08173 1-479): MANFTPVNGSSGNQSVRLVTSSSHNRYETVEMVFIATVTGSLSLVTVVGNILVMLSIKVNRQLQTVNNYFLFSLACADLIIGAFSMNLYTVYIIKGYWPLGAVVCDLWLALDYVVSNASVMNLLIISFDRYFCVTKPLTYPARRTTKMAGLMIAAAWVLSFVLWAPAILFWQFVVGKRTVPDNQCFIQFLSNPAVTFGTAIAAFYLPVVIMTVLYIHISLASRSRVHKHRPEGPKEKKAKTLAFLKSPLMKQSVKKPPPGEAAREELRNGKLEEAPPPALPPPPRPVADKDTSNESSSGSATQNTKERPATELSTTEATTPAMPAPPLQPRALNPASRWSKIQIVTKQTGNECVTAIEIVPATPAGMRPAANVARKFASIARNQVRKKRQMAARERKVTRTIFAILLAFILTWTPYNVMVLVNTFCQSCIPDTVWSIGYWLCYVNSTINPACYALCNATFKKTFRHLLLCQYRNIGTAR
In words: mAChR M4 cell-based functional assay (calcium flux, potentiation of EC20 acetylcholine response). The following applies: for EC50: CHO-K1 cells with human M4 and Gqi5, increase in EC20 acetylcholine response. (Calcium flux is commonly read through the fluorescence of an indicator in the cells.)

Setting [1] is: % ACh maximum at 30 μM, human M4.

Some results are limits rather than exact numbers.

Experimental: Human M4 cDNA, along with the chimeric G protein Gqi5, were transfected into Chinese hamster ovary (CHO-K1) cells purchased from the American Type Culture Collection using commercially available Lipofectamine 2000 transfection reagent (Dalby, B. et al., Methods (2004) 33(2), 95-103). hM4-Gqi5 cells were grown in Ham's F-12 medium containing 10% heat-inactivated fetal bovine serum (FBS), 20 mM HEPES, 50 μg/mL G418 sulfate (CAS #108321-42-2), and 500 μg/mL Hygromycin B. rM4-Gqi5 cells were grown in DMEM containing 10% heat-inactivated FBS, 20 mM HEPES, 400 μg/mL G418 sulfate, and 500 μg/mL Hygromycin B.
For high throughput measurement of agonist-evoked increases in intracellular calcium, CHO-K1 cells stably expressing muscarinic receptors were plated in growth medium lacking G418 sulfate and hygromycin at 15,000 cells/20 μL/well in Greiner 384-well black-walled, tissue culture (TC)-treated, clear-bottom plates (VWR). Cells were incubated overnight at 37° C. and 5% CO2. The next day, cells were washed using an ELX 405 (BioTek) with assay buffer; the final volume was then aspirated to 20 μL. […] Dye was removed by washing with the ELX 405 and the final volume was aspirated to 20 μL. Compound master plates were formatted in an 11 point concentration-response curve (CRC) format (1:3 dilutions) in 100% DMSO with a starting concentration of 10 mM using a BRAVO liquid handler (Agilent). Test compound CRCs were then transferred to daughter plates (240 nL) using the Echo acoustic plate reformatter (Labcyte, Sunnyvale, Calif.) and then diluted into assay buffer (40 μL) to a 2× stock using a Thermo Fisher Combi (Thermo Fisher Scientific, Waltham, Mass.).
Calcium flux was measured using the Functional Drug Screening System (FDSS) 6000 or 7000 (Hamamatsu Corporation, Tokyo, Japan) as an increase in the fluorescent static ratio. Compounds were applied to cells (20 μL, 2×) using the automated system of the FDSS at 2-4 seconds into the protocol and the data were collected at 1 Hz. At 144 seconds, 10 μL of an EC20 concentration of the muscarinic receptor agonist acetylcholine was added (5×), followed by the addition of 12 μL of an EC80 concentration of acetylcholine at the 230 second time point (5×). Agonist activity was analyzed as a concentration-dependent increase in calcium mobilization upon compound addition. Positive allosteric modulator activity was analyzed as a concentration-dependent increase in the EC20 acetylcholine response. […] Antagonist activity was analyzed as a concentration-dependent decrease in the EC80 acetylcholine response. Concentration-response curves were generated using a four-parameter logistical equation in XLFit curve fitting software (IDBS, Bridgewater, N.J.) for Excel (Microsoft, Redmond, Wash.) or Prism (GraphPad Software, Inc., San Diego, Calif.).

For orientation: Emax means the maximal effect, on the per cent scale that the assay sets. A word on the EC50: it is the midpoint of the concentration-response curve. As for `Cc1nc(C)c2c(n1)sc1c(NC3CCC3)nccc12` [Compound 26, N-cyclobutyl-2,4-dimethyl-pyrido[4,5]thieno[1,2-b]pyrimidin-8-amine], the EC50 was found to be 300 nM. Also, the Emax at 30 µM under setting [1] worked out at 94.8%. The like results for `Cc1nc(C2CC2)nc2sc3c(N4CCC(F)CC4)nccc3c12` [Compound 40, 2-cyclopropyl-8-(4-fluoro-1-piperidyl)-4-methyl-pyrido[4,5]thieno[1,2-d]pyrimidine] were, in that order, 1470 nM and 73%. The like results for `Cc1nc(C2CC2)nc2sc3c(NCc4ccc(C(C)(C)O)c(F)c4)nccc3c12` [Compound 27, 2-[4-[[(2-cyclopropyl-4-methyl-pyrido[4,5]thieno[1,2-d]pyrimidin-8-yl)amino]methyl]-2-fluoro-phenyl]propan-2-ol] were, in that order, 2270 nM and 86.4%. For `CCc1nc(C)c2c(n1)sc1c(NCc3ccc(C(C)(C)O)cc3)nccc12` [Compound 34, 2-[4-[[(2-ethyl-4-methyl-pyrido[4,5]thieno[1,2-b]pyrimidin-8-yl)amino]methyl]phenyl]propan-2-ol], in that order: 601 nM and 88.1%. Consider `Cc1nc(C2CC2)nc2sc3c(NC4CC4)nccc3c12` [Compound 32, N,2-dicyclopropyl-4-methyl-pyrido[4,5]thieno[1,2-d]pyrimidin-8-amine], for which the EC50 was found to be 129 nM. Besides, under setting [1], the Emax at 30 µM is 103%. For `CCc1nc(C)c2c(n1)sc1c(N3CCC(F)(F)C3)nccc12` [Compound 35, 8-(3,3-difluoropyrrolidin-1-yl)-2-ethyl-4-methyl-pyrido[4,5]thieno[1,2-b]pyrimidine], in that order: 263 nM and 96.9%.

On to `Cc1nc(C)c2c(n1)sc1c(N3CCCCC3)nccc12` [Compound 12, 2,4-dimethyl-8-(1-piperidyl)pyrido[4′,3′:4,5]thieno[2,3-d]pyrimidine], for which the half-maximal effective concentration (EC50) was determined as 73 nM. Moreover, the Emax at 30 µM under setting [1] is 57.9%. For `Cc1nc(C)c2c(n1)sc1c(N3CC4(C3)CC(F)(F)C4)ncnc12` [Compound 17, 4-(6,6-difluoro-2-azaspiro[3.3]heptan-2-yl)-7,9-dimethylthieno[2,3-d:4,5-d′]dipyrimidine], in that order: 185 nM and 42.9%.

Take `Cc1nc(C)c2c(n1)sc1c(NCc3ccc(C(C)(C)O)cc3)ncc(C#N)c12` [Compound 46, 8-((4-(2-hydroxypropan-2-yl)benzyl)amino)-2,4-dimethylpyrido[4′,3′:4,5]thieno[2,3-d]pyrimidine-5-carbonitrile]: the EC50 is 734 nM. Besides, under setting [1], the Emax at 30 µM was found to be 66.7%. As to `Cc1nc(C2CC2)nc2sc3c(NCc4ccc(F)c(F)c4)nccc3c12` [Compound 29, 2-cyclopropyl-N-[(3,4-difluorophenyl)methyl]-4-methyl-pyrido[4,5]thieno[1,2-d]pyrimidin-8-amine], the concentration for a half-maximal effect (EC50) stood at 6690 nM. For the same molecule, the Emax at 30 µM under setting [1] amounted to 62.4%. For the molecule `Cc1nc(C2CC2)nc2sc3c(NCc4ccc(C(C)(C)O)cc4)nccc3c12` [Compound 28, 2-[4-[[(2-cyclopropyl-4-methyl-pyrido[4,5]thieno[1,2-d]pyrimidin-8-yl)amino]methyl]phenyl]propan-2-ol], the concentration giving a half-maximal response (EC50) is 1390 nM. The Emax at 30 µM under setting [1] was found to be 97%.

As to `Cc1nc(C)c2c(n1)sc1c(N3CCOCC3)ncnc12` [Compound 9, 4-(7,9-dimethylthieno[2,3-d:4,5-d′]dipyrimidin-4-yl)morpholine], the concentration giving a half-maximal response (EC50) came to 5570 nM. In addition, the Emax at 30 µM under setting [1] was determined as 39.1%. For `Cc1nc(C)c2c(n1)sc1c(N3CCC3)ncnc12` [Compound 16, 4-(azetidin-1-yl)-7,9-dimethylthieno[2,3-d:4,5-d′]dipyrimidine], in that order: 1440 nM and 59.9%. With `COc1ccc(CNc2ncnc3c2sc2nc(C)nc(C)c23)cc1F` [Compound 3, N-(3-fluoro-4-methoxybenzyl)-7,9-dimethylthieno[2,3-d:4,5-d′]dipyrimidin-4-amine], the EC50 is 1160 nM. Moreover, under setting [1], the Emax at 30 µM amounted to 64.8%. For `Cc1nc(C)c2c(n1)sc1c(NC3CCCC3)ncnc12` [Compound 4, N-cyclopentyl-7,9-dimethylthieno[2,3-d:4,5-d′]dipyrimidin-4-amine], in that order: 557 nM and 55.5%. Take `Cc1nc(C)c2c(n1)sc1c(N3CCC(F)(F)CC3)ncnc12` [Compound 21, 4-(4,4-difluoropiperidin-1-yl)-7,9-dimethylthieno[2,3-d:4,5-d′]dipyrimidine]: the EC50 was found to be 1410 nM. For the same molecule, the Emax at 30 µM under setting [1] worked out at 52.6%. For `Cc1nc(C)c2c(n1)sc1c(N3CC4CC4C3)ncnc12` (stereo not drawn) [Compound 8, 4-(3-azabicyclo[3.1.0]hexan-3-yl)-7,9-dimethylthieno[2,3-d:4,5-d′]dipyrimidine], in that order: 156 nM and 75.5%.

For the molecule `Cc1nc(C)c2c(n1)sc1c(N3CC[C@H](F)C3)ncnc12` [Compound 19, (S)-4-(3-fluoropyrrolidin-1-yl)-7,9-dimethylthieno[2,3-d:4,5-d′]dipyrimidine], the EC50 stood at 1060 nM. In addition, the maximal effect (Emax) at 30 µM under setting [1] was 62.4%. As to “5-chloro-2,4-dimethyl-8-pyrrolidin-1-yl-pyrido[4,5]thieno[1,2-b]pyrimidine [Compound 45]”, the EC50 came to 693 nM. For the same molecule, the maximum response (Emax) under setting [1] is reported as 60.9%. `Cc1nc(C)c2c(n1)sc1c(NC3CCCC3)nccc12` [Compound 15, N-cyclopentyl-2,4-dimethylpyrido[4′,3′:4,5]thieno[2,3-d]pyrimidin-8-amine]: the concentration for a half-maximal effect (EC50) is 134 nM. Also, under setting [1], the maximum response (Emax) at 30 µM is 73.3%. Turning to `Cc1nc(C)c2c(n1)sc1c(N3CCC(F)(F)C3)nccc12` [Compound 25, 8-(3,3-difluoropyrrolidin-1-yl)-2,4-dimethyl-pyrido[4,5]thieno[1,2-b]pyrimidine], the EC50 amounted to 42 nM. In addition, the maximal effect (Emax) at 30 µM under setting [1] stood at 94.6%.

With `Cc1nc(CC(C)C)nc2sc3c(NCc4ccc(C(C)(C)O)cc4)nccc3c12` [Compound 36, 2-[4-[[(2-isobutyl-4-methyl-pyrido[4,5]thieno[1,2-b]pyrimidin-8-yl)amino]methyl]phenyl]propan-2-ol], the EC50 was above 10000 nM. Moreover, under setting [1], the maximal response (Emax) at 30 µM came to 66.4%. The like results for `CCN(CC)C(=O)c1ccc(CNc2nccc3c2sc2nc(C)nc(C)c23)cc1` [Compound 23, 4-[[(2,4-dimethylpyrido[4,5]thieno[1,2-b]pyrimidin-8-yl)amino]methyl]-N,N-diethyl-benzamide] were, in that order, 4240 nM and 78.8%.

With `CCc1nc(C)c2c(n1)sc1c(NCc3ccc(OC)c(F)c3)nccc12` [Compound 33, 2-ethyl-N-[(3-fluoro-4-methoxy-phenyl)methyl]-4-methyl-pyrido[4,5]thieno[1,2-b]pyrimidin-8-amine], the EC50 amounted to 1330 nM. The maximum response (Emax) at 30 µM under setting [1] was found to be 87.4%.

Regarding `Cc1nc(C)c2c(n1)sc1c(NCc3ccc(C(C)(O)C4CC4)cc3)ncnc12` (stereo not drawn) [Compound 7, 1-cyclopropyl-1-(4-(((7,9-dimethylthieno[2,3-d:4,5-d′]dipyrimidin-4-yl)amino)methyl)phenyl)ethan-1-ol], the EC50 worked out at 2090 nM. Moreover, the Emax at 30 µM under setting [1] is 71.2%. Turning to `Cc1nc(C)c2c(n1)sc1c(NCc3ccc(C(C)(C)O)c(F)c3)nccc12` [Compound 31, 2-[4-[[(2,4-dimethylpyrido[4,5]thieno[1,2-b]pyrimidin-8-yl)amino]methyl]-2-fluoro-phenyl]propan-2-ol], the 50% effective concentration (EC50) was found to be 237 nM. For the same molecule, the Emax at 30 µM under setting [1] was 85.8%. Take `Cc1nc(C)c2c(n1)sc1c(N3CCC(F)(F)C3)ncnc12` [Compound 18, 4-(3,3-difluoropyrrolidin-1-yl)-7,9-dimethylthieno[2,3-d:4,5-d′]dipyrimidine]: the EC50 turned out to be 635 nM. Further, the Emax at 30 µM under setting [1] came to 76.9%. For `Cc1nc(C2CC2)nc2sc3c(NC4CCCC4)nccc3c12` [Compound 39, N-cyclopentyl-2-cyclopropyl-4-methyl-pyrido[4,5]thieno[1,2-d]pyrimidin-8-amine], the EC50 stood at 1860 nM. Moreover, under setting [1], the Emax at 30 µM is 69%. Turning to `Cc1nc(C)c2c(n1)sc1c(NCc3ccc(C(C)(C)O)cc3)nccc12` [Compound 14, 2-(4-(((2,4-dimethylpyrido[4′,3′:4,5]thieno[2,3-d]pyrimidin-8-yl)amino)methyl)phenyl)propan-2-ol], the Emax at 30 µM under setting [1] was found to be 80.5%. In the case of `Cc1nc(C)c2c(n1)sc1c(N3CC4(COC4)C3)ncnc12` [Compound 10, 6-(7,9-dimethylthieno[2,3-d:4,5-d′]dipyrimidin-4-yl)-2-oxa-6-azaspiro[3.3]heptane], the concentration for a half-maximal effect (EC50) is 1580 nM. Further, under setting [1], the Emax at 30 µM stood at 76%. The like results for `Cc1nc(C2CC2)nc2sc3c(N4CCCC4)nccc3c12` [Compound 38, 2-cyclopropyl-4-methyl-8-pyrrolidin-1-yl-pyrido[4,5]thieno[1,2-d]pyrimidine] were, in that order, 1010 nM and 65%. For the molecule `[2H]C([2H])(Nc1ncnc2c1sc1nc(C)nc(C)c12)c1ccc(C(C)(C)O)cc1` [Compound 5, 2-(4-(((7,9-dimethylthieno[2,3-d:4,5-d′]dipyrimidin-4-yl)amino)methyl-d2)phenyl)propan-2-ol], the concentration giving a half-maximal response (EC50) was determined as 1370 nM. Besides, the Emax at 30 µM under setting [1] amounted to 79.3%.
